In the oligonucleotide strings, read from the 5' end, every base follows the letter of its sugar. An asterisk marks phosphorothioate; unmarked linkages are phosphodiester. Other units and linkages are bracketed, terminal groups are in braces. A string of capitals states the bases alone. d = 2'-deoxy (DNA); m = 2'-O-methyl
Biological target: T1, human TLR9 (Homo sapiens, UniProt Q9NR96)
T1 construct: HA; host or cells: 293XL-hTLR9-HA (HEK293)
T1 sequence (Q9NR96 26-1032): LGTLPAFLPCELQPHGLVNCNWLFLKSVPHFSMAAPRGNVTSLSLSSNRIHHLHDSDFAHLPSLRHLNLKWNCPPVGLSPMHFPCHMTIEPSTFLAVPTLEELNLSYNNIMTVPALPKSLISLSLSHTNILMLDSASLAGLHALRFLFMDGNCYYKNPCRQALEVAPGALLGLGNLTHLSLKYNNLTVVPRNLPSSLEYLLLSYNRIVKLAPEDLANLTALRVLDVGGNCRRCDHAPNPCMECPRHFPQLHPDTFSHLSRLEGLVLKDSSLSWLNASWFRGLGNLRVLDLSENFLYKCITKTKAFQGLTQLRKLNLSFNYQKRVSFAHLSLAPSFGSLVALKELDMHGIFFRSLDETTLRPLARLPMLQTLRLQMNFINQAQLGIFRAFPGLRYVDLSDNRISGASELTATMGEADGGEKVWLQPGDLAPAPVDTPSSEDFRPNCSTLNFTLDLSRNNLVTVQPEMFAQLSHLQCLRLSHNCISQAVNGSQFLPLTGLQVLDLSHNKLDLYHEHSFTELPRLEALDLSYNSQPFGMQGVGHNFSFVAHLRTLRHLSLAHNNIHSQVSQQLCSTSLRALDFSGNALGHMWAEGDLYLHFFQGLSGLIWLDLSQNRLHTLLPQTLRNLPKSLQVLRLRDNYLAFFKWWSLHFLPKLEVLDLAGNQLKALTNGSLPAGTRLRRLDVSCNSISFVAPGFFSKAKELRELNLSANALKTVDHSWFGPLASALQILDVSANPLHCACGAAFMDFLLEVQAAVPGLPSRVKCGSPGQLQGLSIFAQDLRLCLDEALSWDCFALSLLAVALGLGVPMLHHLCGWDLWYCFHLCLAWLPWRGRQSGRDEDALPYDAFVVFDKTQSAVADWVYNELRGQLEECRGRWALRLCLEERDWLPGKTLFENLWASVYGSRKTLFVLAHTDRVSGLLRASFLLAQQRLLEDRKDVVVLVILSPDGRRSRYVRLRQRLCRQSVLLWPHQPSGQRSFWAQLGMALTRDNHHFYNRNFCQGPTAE
Test: HEK-TLR9 NF-κB-luciferase reporter, ODN2006 stimulation
Type: cell-based
Details: for TLR9 100 nM (averaged NF-κB-Luciferase level relative to ODN2006 condition): ASO 100 nM; for TLR9 100 nM (averaged NF-κB-Luciferase level relative to ODN2006 condition) / TLR9 500 nM (averaged NF-κB-Luciferase level relative to ODN2006 condition): relative to ODN2006 only, given as fraction; for TLR9 500 nM (averaged NF-κB-Luciferase level relative to ODN2006 condition): ASO 500 nM

TCCACAATCAAGACAT (antisense; LNA-modified, pattern not given here) [HPRT LNA-551 KL]
TLR9 100 nM (averaged NF-κB-Luciferase level relative to ODN2006 condition): 0.851
TLR9 500 nM (averaged NF-κB-Luciferase level relative to ODN2006 condition): 0.308

TCTTGGCTTCGTGGAG (antisense; LNA-modified, pattern not given here) [MB21D1-521 LNA V1]
TLR9 100 nM (averaged NF-κB-Luciferase level relative to ODN2006 condition): 1.251
TLR9 500 nM (averaged NF-κB-Luciferase level relative to ODN2006 condition): 0.595

ACCACGTCTGCTCTAA (antisense; LNA-modified, pattern not given here) [CAMSAP1-1635 LNA KL]
TLR9 100 nM (averaged NF-κB-Luciferase level relative to ODN2006 condition): 0.842
TLR9 500 nM (averaged NF-κB-Luciferase level relative to ODN2006 condition): 0.162

CCACATCCTGTGGCTC (antisense; LNA-modified, pattern not given here) [CAMSAP1-2906 LNA V1]
TLR9 100 nM (averaged NF-κB-Luciferase level relative to ODN2006 condition): 0.338
TLR9 500 nM (averaged NF-κB-Luciferase level relative to ODN2006 condition): 0.337

CTGCAGCTTCCTTGTC (antisense; LNA-modified, pattern not given here) [CTNN2B-2136 LNA V1]
TLR9 100 nM (averaged NF-κB-Luciferase level relative to ODN2006 condition): 0.358
TLR9 500 nM (averaged NF-κB-Luciferase level relative to ODN2006 condition): 0.263

GTGATCTTGACATGCT (antisense; LNA-modified, pattern not given here) [EGFR-2790 LNA KL]
TLR9 100 nM (averaged NF-κB-Luciferase level relative to ODN2006 condition): 1.001
TLR9 500 nM (averaged NF-κB-Luciferase level relative to ODN2006 condition): 0.181

ACGTTCAGTCCTGTCC (antisense; LNA-modified, pattern not given here) [HPRT LNA-294 V1]
TLR9 100 nM (averaged NF-κB-Luciferase level relative to ODN2006 condition): 0.427
TLR9 500 nM (averaged NF-κB-Luciferase level relative to ODN2006 condition): 0.198

AATCCAACAAAGTCTG (antisense; LNA-modified, pattern not given here) [HPRT LNA-692 KL]
TLR9 100 nM (averaged NF-κB-Luciferase level relative to ODN2006 condition): 1.050
TLR9 500 nM (averaged NF-κB-Luciferase level relative to ODN2006 condition): 0.529

GAGGTCTTGGCTTCGT (antisense; LNA-modified, pattern not given here) [MB21D1-525 LNA V1]
TLR9 100 nM (averaged NF-κB-Luciferase level relative to ODN2006 condition): 0.897
TLR9 500 nM (averaged NF-κB-Luciferase level relative to ODN2006 condition): 0.224

GGAGGTCTTGGCTTCG (antisense; LNA-modified, pattern not given here) [MB21D1-526 LNA V1]
TLR9 100 nM (averaged NF-κB-Luciferase level relative to ODN2006 condition): 0.912
TLR9 500 nM (averaged NF-κB-Luciferase level relative to ODN2006 condition): 0.674

CCTCCCATCTCCTTCA (antisense; LNA-modified, pattern not given here) [HPRT LNA-326 V1]
TLR9 100 nM (averaged NF-κB-Luciferase level relative to ODN2006 condition): 1.010
TLR9 500 nM (averaged NF-κB-Luciferase level relative to ODN2006 condition): 0.727

mC*mA*mG*mU*mG*T*T*T*T*T*A*A*T*T*T*mU*mG*mU*mA*mG (mC*mA*mG*mU*mG*dT*dT*dT*dT*dT*dA*dA*dT*dT*dT*mU*mG*mU*mA*mG; antisense) [[CDKN2B-AS1]613]
TLR9-500 nM: averaged NF-κB-Luciferase relative to ODN2006 (HEK-TLR9, 500 nM ASO 45 min, then 200 nM ODN2006 overnight, percentage of ODN2006 only): 92.59%

CCAACACTTCGTGGGG (antisense; LNA-modified, pattern not given here) [HPRT LNA-668 V1]
TLR9 100 nM (averaged NF-κB-Luciferase level relative to ODN2006 condition): 1.065
TLR9 500 nM (averaged NF-κB-Luciferase level relative to ODN2006 condition): 0.610

TGCTCCTCGGTCTCCC (antisense; LNA-modified, pattern not given here) [CAMSAP1-1850 LNA V1]
TLR9 100 nM (averaged NF-κB-Luciferase level relative to ODN2006 condition): 0.548
TLR9 500 nM (averaged NF-κB-Luciferase level relative to ODN2006 condition): 0.535

TCCATACCCAAGGCAT (antisense; LNA-modified, pattern not given here) [CTNN2B-2446 LNA V1]
TLR9 100 nM (averaged NF-κB-Luciferase level relative to ODN2006 condition): 1.075
TLR9 500 nM (averaged NF-κB-Luciferase level relative to ODN2006 condition): 0.951

ATGGCCTCCCATCTCC (antisense; LNA-modified, pattern not given here) [HPRT LNA-330 V1]
TLR9 100 nM (averaged NF-κB-Luciferase level relative to ODN2006 condition): 0.511
TLR9 500 nM (averaged NF-κB-Luciferase level relative to ODN2006 condition): 0.244
